From patent US12145914B2, “Compound having oxadiazole and pharmaceutical composition containing the same” (SK BIOPHARMACEUTICALS CO., LTD., priority 2018, dated 2024)

What follows are compounds tested on focal onset seizures induced by electrostimulation of 44 mA, 6 Hz, 3 sec in ICR mouse (assay: 6 Hz method for screening anticonvulsants (6 Hz, 44 mA electrostimulation)). Settings: male ICR mice, intraperitoneal (ip), electrostimulation 44 mA, 3 sec to the eye, number of non-seizure animals/number of animals used.
Format: in vivo
Text: The utility of the compounds according to the present invention as an anticonvulsant agent has been investigated by the 6 Hz method, which has been well established as pharmacological screening methods of convulsant agents for focal onset seizures. The procedure of the 6 Hz method for screening anticonvulsant was as follows:
1) Preparation of Experimental Animals
Male ICR mice are purchased from Orient Bio, Inc. of Korea, and are stored and managed according to laboratory animal management standards of the Institutional Animal Care and Use Committee (IACUC) by putting the same in a wire net cage under an environment in which an ambient temperature of 19 to 25° C., 40 to 60% relative humidity and 12 hour periods of light/dark were auto-controlled, and water was freely taken. After stabilization for a week, mice with a body weight of 18 to 23 g were used in the experiment.
2) Evaluation of the Anticonvulsant Effect of a Compound
5% Tetracaine (Sigma) was added to both eyes to provide a local anesthetic effect at 5 to 10 minutes before the period of electrical stimulation at the animal ICR mouse. The compounds to be tested were dissolved in distilled water in which 30% polyethylene glycol 300+5% dimethylsulfoxide+5% Cremophor was dissolved and administered intraperitoneally (ip) to the animal at a dosage volume of 10 mL/kg. Then, electrostimulation of 44 mA, 6 Hz, and 3 sec was applied to the eye to induce focus-generating seizures. After the electrical stimulation, the presence of seizures due to drug effects was confirmed, and the ratio of animals showing no seizures was expressed as a protection rate (the number of non-seizure animals/the number of animals used in experiments=protection rate). […]

| SMILES | 6 Hz, 44 mA protection rate |
| --- | --- |
| Cc1nnc(CC(O)c2cc(-c3ccc(Cl)cc3)ccc2F)o1 (centres unmarked) [Example 1, 1-[5-(4-chlorophenyl)-2-fluoro-phenyl]-2-(5-methyl-1,3,4-oxadiazol-2-yl)ethanol] | ++ (0.6 to 0.8 are scored as ‘++’) |
| Cc1nnc(CC(O)c2cc(-c3ccc(C(F)(F)F)cc3)ccc2F)o1 (centres unmarked) [Example 2, 1-[2-fluoro-5-[4-(trifluoromethyl)phenyl]phenyl]-2-(5-methyl-1,3,4-oxadiazol-2-yl)ethanol] | ++ (0.6 to 0.8 are scored as ‘++’) |
| Cc1nnc(CC(OC(N)=O)c2cc(-c3ccc(C(F)(F)F)cc3)ccc2F)o1 (centres unmarked) [Example 3, [1-[2-fluoro-5-[4-(trifluoromethyl)phenyl]phenyl]-2-(5-methyl-1,3,4-oxadiazole-2-yl)ethyl] carbamate] | ++ (0.6 to 0.8 are scored as ‘++’) |
| Cc1nnc(CC(OC(N)=O)c2cc(-c3ccc(Cl)cc3)ccc2F)o1 (centres unmarked) [Example 4, [1-[5-(4-chlorophenyl)-2-fluoro-phenyl]-2-(5-methyl-1,3,4-oxadiazol-2-yl)ethyl] carbamate] | ++ (0.6 to 0.8 are scored as ‘++’) |
| OC(Cc1nnco1)c1cc(-c2ccc(C(F)(F)F)cc2)ccc1F (centres unmarked) [Example 5, 1-[2-fluoro-5-[4-(trifluoromethyl)phenyl]phenyl]-2-(1,3,4-oxadiazol-2-yl)ethanol] | + (0.2 to 0.6 are scored as ‘+’) |
| Cc1nnc(CC(OC(N)=O)c2cccc(-c3ccc(C(F)(F)F)cc3)c2)o1 (centres unmarked) [Example 7, [2-(5-methyl-1,3,4-oxadiazol-2-yl)-1-[3-[4-(trifluoromethyl)phenyl]phenyl]ethyl]carbamate] | ++ (0.6 to 0.8 are scored as ‘++’) |
| Cc1nnc(CC(O)c2cc(CCC(F)(F)F)ccc2F)o1 (centres unmarked) [Example 10, 1-[2-fluoro-5-(3,3,3-trifluoropropyl)phenyl]-2-(5-methyl-1,3,4-oxadiazol-2-yl)ethanol] | + (0.2 to 0.6 are scored as ‘+’) |
| Cc1nnc(CC(OC(N)=O)c2cc(CCC(F)(F)F)ccc2F)o1 (centres unmarked) [Example 11, [1-[2-fluoro-5-(3,3,3-trifluoropropyl)phenyl]-2-(5-methyl-1,3,4-oxadiazol-2-yl)ethyl] carbamate] | + (0.2 to 0.6 are scored as ‘+’) |
| Cc1nnc(CC(OC(N)=O)c2cc(OCCCC(F)(F)F)ccc2F)o1 (centres unmarked) [Example 16, [1-[2-fluoro-5-(4,4,4-trifluorobutoxy)phenyl]-2-(5-methyl-1,3,4-oxadiazol-2-yl)ethyl] carbamate] | ++ (0.6 to 0.8 are scored as ‘++’) |
| Cc1nnc(CC(O)c2cc(OCC(F)(F)F)ccc2F)o1 (centres unmarked) [Example 17, 1-[2-fluoro-5-(2,2,2-trifluoroethoxy)phenyl]-2-(5-methyl-1,3,4-oxadiazol-2-yl)ethanol] | + (0.2 to 0.6 are scored as ‘+’) |
| Cc1nnc(CC(OC(N)=O)c2cc(OCC(F)(F)F)ccc2F)o1 (centres unmarked) [Example 18, [1-[2-fluoro-5-(2,2,2-trifluoroethoxy)phenyl]-2-(5-methyl-1,3,4-oxadiazol-2-yl)ethyl] carbamate] | + (0.2 to 0.6 are scored as ‘+’) |
| Cc1nnc(CC(O)c2cccc(OCCCC(F)(F)F)c2)o1 (centres unmarked) [Example 19, 2-(5-methyl-1,3,4-oxadiazol-2-yl)-1-[3-(4,4,4-trifluorobutoxy)phenyl]ethanol] | + (0.2 to 0.6 are scored as ‘+’) |
| Cc1nnc(CC(OC(N)=O)c2cccc(OCCCC(F)(F)F)c2)o1 (centres unmarked) [Example 20, [2-(5-methyl-1,3,4-oxadiazol-2-yl)-1-[3-(4,4,4-trifluorobutoxy)phenyl]ethyl] carbamate] | + (0.2 to 0.6 are scored as ‘+’) |
| CCCCOc1ccc(F)c(C(Cc2nnc(C)o2)OC(N)=O)c1 (centres unmarked) [Example 22, [1-(5-butoxy-2-fluoro-phenyl)-2-(5-methyl-1,3,4-oxadiazol-2-yl)ethyl] carbamate] | + (0.2 to 0.6 are scored as ‘+’) |
| OC(Cc1nnco1)c1cc(OCCCC(F)(F)F)ccc1F (centres unmarked) [Example 23, 1-[2-fluoro-5-(4,4,4-trifluorobutoxy)phenyl]-2-(1,3,4-oxadiazol-2-yl)ethanol] | + (0.2 to 0.6 are scored as ‘+’) |
| NC(=O)OC(Cc1nnco1)c1cc(OCCCC(F)(F)F)ccc1F (centres unmarked) [Example 24, [1-[2-fluoro-5-(4,4,4-trifluorobutoxy)phenyl]-2-(1,3,4-oxadiazol-2-yl)ethyl] carbamate] | ++ (0.6 to 0.8 are scored as ‘++’) |
| CCCCCc1ccc(F)c(C(Cc2nnc(C)o2)OC(N)=O)c1 (centres unmarked) [Example 28, [1-(2-fluoro-5-pentyl-phenyl)-2-(5-methyl-1,3,4-oxadiazol-2-yl)ethyl] carbamate] | ++ (0.6 to 0.8 are scored as ‘++’) |
| Cc1nnc(CC(O)c2cc(CCCCC(F)(F)F)ccc2F)o1 (centres unmarked) [Example 32, 1-[2-fluoro-5-(5,5,5-trifluoropentyl)-phenyl]-2-(5-methyl-1,3,4-oxadiazol-2-yl)ethanol] | + (0.2 to 0.6 are scored as ‘+’) |
| Cc1nnc(CC(OC(N)=O)c2cc(CCCC(F)(F)F)ccc2F)o1 (centres unmarked) [Example 33, [1-[2-fluoro-5-(4,4,4-trifluorobutyl)phenyl]-2-(5-methyl-1,3,4-oxadiazol-2-yl)ethyl] carbamate] | + (0.2 to 0.6 are scored as ‘+’) |
| Cc1nnc(CC(OC(N)=O)c2cc(CCCCC(F)(F)F)ccc2F)o1 (centres unmarked) [Example 34, [1-[2-fluoro-5-(5,5,5-trifluoropentyl)phenyl]-2-(5-methyl-1,3,4-oxadiazol-2-yl)ethyl] carbamate] | ++ (0.6 to 0.8 are scored as ‘++’) |
| Cc1nnc(CC(O)c2cc(C(=O)NCCC(F)(F)F)ccc2F)o1 (centres unmarked) [Example 37, 4-fluoro-3-[1-hydroxy-2-(5-methyl-1,3,4-oxadiazol-2-yl)ethyl]-N-(3,3,3-trifluoropropyl)benzamide] | + (0.2 to 0.6 are scored as ‘+’) |
| Cc1nnc(CC(O)c2cc(OCCCC(F)(F)F)ccc2Cl)o1 (centres unmarked) [Example 39, 1-[2-chloro-5-(4,4,4-trifluorobutoxy)phenyl]-2-(5-methyl-1,3,4-oxadiazol-2-yl)ethanol] | + (0.2 to 0.6 are scored as ‘+’) |
| Cc1nnc(CC(O)c2cc(-c3ccc(C(F)(F)F)cc3)ccc2C)o1 (centres unmarked) [Example 42, 2-(5-methyl-1,3,4-oxadiazol-2-yl)-1-[2-methyl-5-[4-(trifluoromethyl)phenyl]phenyl]ethanol] | ++ (0.6 to 0.8 are scored as ‘++’) |
| COc1ccc(-c2ccc(C(F)(F)F)cc2)cc1C(O)Cc1nnc(C)o1 (centres unmarked) [Example 43, 1-[2-methoxy-5-[4-(trifluoromethyl)phenyl]phenyl]-2-(5-methyl-1,3,4-oxadiazol-2-yl)ethanol] | + (0.2 to 0.6 are scored as ‘+’) |
| Cc1nnc(CC(O)c2cc(-c3ccc(C(F)(F)F)cc3)ccc2Cl)o1 (centres unmarked) [Example 48, 1-[2-chloro-5-[4-(trifluoromethyl)phenyl]phenyl]-2-(5-methyl-1,3,4-oxadiazol-2-yl)ethanol] | ++ (0.6 to 0.8 are scored as ‘++’) |
| Cc1nnc(CC(OC(N)=O)c2cc(-c3ccc(C(F)(F)F)cc3)ccc2Cl)o1 (centres unmarked) [Example 50, [1-[2-chloro-5-[4-(trifluoromethyl)phenyl]phenyl]-2-(5-methyl-1,3,4-oxadiazol-2-yl)ethyl] carbamate] | ++ (0.6 to 0.8 are scored as ‘++’) |
